Laboratory results published in patent US5610038A, “Thiangazole, its preparation, compositions and use thereof” (Ciba-Geigy Corporation, priority 1990, dated 1997).
≈ marks a conversion by molar mass, not a printed value.

How the values were obtained:
adult liver flukes = details: ruminants, doses tolerated by the host animal; cited from earlier work
[1] = test system: benzimidazole-resistant nematodes; details: ruminants, doses tolerated by the host animal; cited from earlier work
[2] = test system: sub-mitochondrial particles of deer heart; assay: NADH oxidation in sub-mitochondrial particles; assay type: biochemical
[3] = test system: Plutella xylostella caterpillars; assay: F.11. Action against Plutella xylostella caterpillars; assay type: in vivo; details: cabbage plants, third-stage caterpillars, 3 days
Method: F. 11. Action against Plutella xylostella caterpillars
Young cabbage plants are sprayed with an aqueous emulsion comprising 400 ppm of the test compound. After the spray coating has dried, the cabbage plants are populated with 10 Plutella xylostella caterpillars in the third stage and placed in a plastics container. Evaluation is made 3 days later. The percentage reduction in the population or the percentage reduction in feeding damage (% activity) is determined by comparing the number of dead caterpillars and the feeding damage on the treated plants with that on untreated plants. […] The activity is over 80%.

[4] = test system: Heliothis virescens caterpillars; assay: F.10. Action against Heliothis virescens caterpillars; assay type: in vivo; details: 400 ppm, soybean plants, first-stage caterpillars, 6 days
Method: F. 10. Action against Heliothis virescens caterpillars
Young soybean plants are sprayed with an aqueous emulsion comprising 400 ppm of the test compound. After the spray coating has dried, the soybean plants are populated with 10 Heliothis virescens caterpillars in the first stage and placed in a plastics container. Evaluation is made 6 days later. The percentage reduction in the population or the percentage reduction in feeding damage(% activity) is determined by comparing the number of dead caterpillars and the feeding damage on the treated plants with that on untreated plants.

Heliothis virescens = assay: F.7. Ovicidal/larvicidal action against Heliothis virescens; assay type: in vivo; details: 400 ppm, egg deposits on cotton, 8 days
Method: F.7. Ovicidal/larvicidal action against Heliothis virescens
Egg deposits of Heliothis virescens on cotton are sprayed with an aqueous emulsion comprising 400 ppm of test compound. 8 days later, the percentage of eggs which have hatched and the survival rate of the caterpillars are evaluated in comparison with untreated controls (% reduction in the population).

Fasciola hepatica = assay: F.6. Trial with sheep infested with Fasciola hepatica; assay type: in vivo; details: doses of less than 50 mg of active ingredient/kg of body weight, single dose
Method: F.6. Trial with sheep infested with Fasciola hepatica
The active ingredient is administered in the form of a suspension using a stomach probe or by intraruminal injection to sheep that have previously been artificially infested with Fasciola hepatica. 3 animals am used for each dose per trial. Each animal is treated only once with a single dose.
(§1) A first evaluation is made by comparing the number of worm eggs excreted in the faeces of the sheep before and after treatment.
Three to four weeks after treatment the sheep are sacrificed and dissected. The evaluation is carried out by counting the liver flukes remaining in the gall-bladder ducts after treatment. Sheep simultaneously and similarly infested but untreated are used as a control or comparison. The difference in the number of liver flukes counted in the two groups gives the degree of effectiveness of the test compound.

Mucor hiemalis = assay: Antibiotic activity, agar diffusion test / series dilution test; assay type: cell-based
Method: (§2) The antibiotic activity is determined by means of an agar diffusion test with reference to the inhibiting areola diameter, or from the culture density in a series dilution test.

Rhizopus arrhizus = assay: as above; assay type: cell-based
Method: as §2

Pythium debaryanum = assay: as above; assay type: cell-based
Method: as §2

Botrytis cinerea = assay: as above; assay type: cell-based
Method: as §2

Gibberella fujikuroi = assay: as above; assay type: cell-based
Method: as §2

Ustilago maydis = assay: MIC, agar diffusion test / series dilution test; assay type: cell-based; details: Mycosarcoma maydis
Method: as §2

Lucilia cuprina = assay: F.5. Action against Lucilia cuprina; assay type: in vivo; details: test solution comprising 16 ppm, evaluation after 96 hours
Method: F.5. Action against Lucilia cuprina Freshly deposited eggs of the blow fly species Lucilia cuprina are introduced in small portions (30-50 eggs) into test tubes in which 4 ml of nutrient medium have previously been mixed with 1 ml of test solution comprising 16 ppm of the test compound. After inoculation of the culture medium the test tubes are closed with a cotton wool plug and incubated in an incubator at 30° C. for four days. By this time, larvae approximately 1 cm long (stage 3) have developed in the untreated medium. If a compound is active the larvae are at this time either dead or clearly retarded. Evaluation is effected after 96 hours.

[5] = test system: cestodes such as Moniezia benedeni; assay: F.2. Trial with sheep infested with cestodes; assay type: in vivo; details: dose of less than 20 mg/kg body weight, single dose
Method: F.2. Trial with sheep infested wtih cestodes such as Moniezia benedeni
The active ingredient is administered in the form of a suspension using a stomach probe or by intraruminal injection to sheep that have previously been artificially infested with cestodes, such as Moniezia benedeni. 1 to 3 animals are used for each dose per trial. Each sheep is treated only once with a single dose. Seven to ten days after treatment the sheep are sacrificed and dissected. The evaluation is carded out by counting the worms remaining in the intestine after the treatment. Sheep simultaneously and similarly infested but untreated are used as a control or comparison. In this test thiangazole effects an approximately 90% reduction in cestode infestation at a dose of less than 20 mg/kg body weight.

Dermanyssus gallinae = assay: F.3. Action against Dermanyssus gallinae; assay type: in vivo; details: 72 h, after 3 days, read-out: activity (mortality of the mites)
Method: F.3. Action against Dermanyssus gallinae
2 to 3 ml of a solution comprising 100 ppm of test compound, and approximately 200 mites at various stages of development, are placed in a glass container that is open at the top. The container is then closed with a cotton wool plug, shaken for 10 minutes until the mites are completely wetted, and then inverted for a short time so that the remaining test solution can be absorbed by the cotton wool. After 3 days, the mortality of the mites is determined as a percentage by counting the number of dead individuals.

Aphis craccivora = assay: F.8. Action against Aphis craccivora; assay type: in vivo; details: pea seedlings, 3 and 6 days, read-out: activity (percentage reduction in the population)
Method: F.8. Action against Aphis craccivora
Pea seedlings are infested with Aphis craccivora and then sprayed with a spray mixture comprising 400 ppm of the test compound, and incubated at 20° C. Evaluation is made 3 and 6 days later. The percentage reduction in the population (% activity) is determined by comparing the number of dead aphids on the treated plants with that on untreated plants.

Tetranychus urticae = assay: F.9 Action against Tetranychus urticae; assay type: in vivo; details: 144 h, bean plants, 6 days at 25° C., read-out: activity (percentage reduction in the population)
Method: F.9 Action against Tetranychus urticae
Young bean plants are populated with a mixed population of Tetranychus urticae and sprayed one day later with an aqueous emulsion comprising 400 ppm of the test compound. The plants are then incubated for 6 days at 25° C. and then evaluated. The percentage reduction in the population (% activity) is determined by comparing the number of dead eggs, larvae and adults on the treated plants with that on untreated plants.

Lucille sericata = assay: F.4. Action against Lucille sericata; assay type: in vivo; details: 10-0.01 ppm, eggs/larvae, 30° C., four days
Method: F.4. Action against Lucille sericata
Freshly deposited eggs of the blow fly Lucille sericata are introduced in small portions (30-50 eggs) into test tubes in which 4 ml of nutrient medium have previously been mixed with 1 ml of test solution in the intermediate dilution required for the final concentration. After inoculation of the culture medium the test tubes are closed with a cotton wool plug and incubated in an incubator at 30° C. for four days. By this time, larvae approximately 1 cm long (stage 3) have developed in the medium that, for comparison, has not been treated. If a compound is active, the larvae are at this time either dead or moribund and clearly retarded. The test is carried out simultaneously at concentrations of from 10-0.01 ppm. The activity is measured at the lowest fully active concentration (LC 100). The test includes both compounds that are effective by contact and those that are effective as an ingested poison. Repellence is also taken into account, since the larvae migrate from the medium and starve.

[6] = test system: nematodes such as Haemonchus contortus and Trichostrongylus colubriformis; assay: F.1. Trial with sheep infested with nematodes; assay type: in vivo; details: single dose
Method: F.1. Trial with sheep infested with nematodes such as Haemonchus contortus and Trichostrongylus colubriformis
Thiangazole is administered in the form of a suspension using a stomach probe or by intraruminal injection to sheep that have previously been artificially infested with nematodes, such as Haemonchus contortus and Trichostrongylus colubriformis. 1 to 3 animals are used for each dose per trial. Each sheep is treated only once with a single dose.
as §1
Seven to ten days after treatment the sheep are sacrificed and dissected. The evaluation is carded out by counting the worms remaining in the intestine after the treatment. Sheep simultaneously and similarly infested but untreated are used as a control or comparison.

CCCSc1ccc2nc(NC(=O)OC)[nH]c2c1 [Albendazole]
anthelmintic activity (adult liver flukes): totally inadequate
anthelmintic activity [1]: totally inadequate

CNC(=O)c1nc(C2(C)CSC(C3(C)CSC(C4(C)CSC(C=Cc5ccccc5)=N4)=N3)=N2)oc1C (stereo not shown) [Thiangazole, thiangazole]
inhibition of NADH oxidation [2]: inhibits NADH oxidation
activity (reduction in the population or in feeding damage) ([3]; 400 ppm): good activity (The good pesticidal activity of the compounds of formulae I and Ia according to the invention corresponds to a mortality of at least 50-60% of the mentioned pests)
activity at 400 ppm ([3]; Plutella xylostella, 72 h, read-out: % activity (reduction in the population or in feeding damage)): > 80%
activity (reduction in the population or in feeding damage) [4]: very good activity
ovicidal/larvicidal activity (% reduction in the population) (Heliothis virescens): good activity (The good pesticidal activity of the compounds of formulae I and Ia according to the invention corresponds to a mortality of at least 50-60% of the mentioned pests)
activity against Fasciola hepatica (liver flukes remaining) (Fasciola hepatica): good activity
growth inhibition of fungus (Mucor hiemalis): inhibits the growth
growth inhibition of fungus (Rhizopus arrhizus): inhibits the growth
growth inhibition of fungus (Pythium debaryanum): inhibits the growth
growth inhibition of fungus (Botrytis cinerea): inhibits the growth
growth inhibition of fungus (Gibberella fujikuroi): inhibits the growth
MIC (Ustilago maydis): 3.2 µg/mL (≈ 5.93 µM)
activity against larvae (Lucilia cuprina): very good activity
reduction in cestode infestation [5]: approximately 90%
mortality at 100 ppm (Dermanyssus gallinae): ≥ 50%
mortality at 400 ppm (Aphis craccivora): ≥ 50%
mortality at 400 ppm (Tetranychus urticae): ≥ 50%
activity at lowest fully active concentration (LC 100) (Lucille sericata): full activity even at low concentrations
reduction of nematode infestation ([6]; 20 mg of active ingredient per kg of body weight): virtually complete reduction
reduction in nematode infestation ([6]; stomach probe or intraruminal injection): sharp reduction in nematode infestation
